Assays:
[1] = target: T1, p53-Mdm2 interaction (N-terminal domain of Mdm2 protein, amino acids 1-111) (Homo sapiens, UniProt Q00987); assay: Fluorescence polarization (FP) binding assay of p53-Mdm2 interaction; conditions: for Ki: FP assay, 130 nM Mdm2, FAM-labelled p53 peptide, Ki transformed from IC50 using Kenakin equation
T1 construct: N-terminal domain of Mdm2 protein (amino acids 1-111)
In short: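 N-terminal Mdm2 (aa 1-111) at 130 nM preincubated 15 min with compound (5% DMSO) in PBS, 0.1% CHAPS, 5 mM DTT, then […] FAM-labelled p53 peptide added. Polarization read after 90 min at room temperature (ex 470/em 520 nm). IC50 converted to Ki by Kenakin equation.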

SJSA-1 xenograft = assay: In vivo efficacy in the SJSA-1 xenograft model in mice; conditions: compound 93 100 mg/kg p.o. q1dx14 vs control NaCl 0.9%, female Crl:SHO-Prkdc scid Hr hr mice, during and at the end of study
Description: The experiment was conducted on female mice from the Crl:SHO-Prkdc^scidHr^hr strain. Mice were inoculated subcutaneously in the right flank with cancer cell line SJSA-1 in the amount of […] cells suspended in 100 μl HBSS: Matrigel matrix in a 3:1 ratio per mouse. On the 16th day after inoculation mice were divided into groups, so that in each group the mean tumor volume was similar and averaged around 160 mm^3. Two experiment groups were selected, each consisting of 5 mice: Control NaCl 0.9% and compound 93. The compound 93 was dissolved in 15% PEG400, 10% Cremophore EL, 75% H2O.
Mice used in the experiment were administered per os (p.o.) with compounds or NaCl 0.9% in a q1dx14 schedule (14 doses, daily). During the course of experiment mice were weighed before each administration,—twice/thrice a week. Animal welfare was monitored daily.
Change in tumor volume was monitored twice/thrice a week starting from the first day of administration. Tumor volume was calculated based on its length and width measured with an electronic calipers:
V[mm^3]=d^2×D/2 • where d—width, D—length.
The tumor volume in the compound 93 group was measured up to 68 days after inoculation (39 days after last administration). Results of the experiment were expressed as mean values of tumor volume ±SEM. All calculations and graphs were performed using GraphPad Prism 5 software. […]

[2] = system: SJSA-1 osteosarcoma cell line; assay: MTT cell viability assay; assay type: cell-based; conditions: Homo sapiens, SJSA-1, 72 h, 72 h incubation, average of 2-5 experiments
In short: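 Cells exposed to serial compound dilutions for 72 h, then MTT (0.5 mg/ml final) added for 4 h; formazan dissolved in DMSO. IC50 from dose-response curves, 2-5 independent repeats.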

T1 sequence (Q00987 1-111): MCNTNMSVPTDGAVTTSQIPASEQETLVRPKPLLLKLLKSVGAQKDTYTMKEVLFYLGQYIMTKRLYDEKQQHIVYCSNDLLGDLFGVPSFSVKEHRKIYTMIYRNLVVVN

| SMILES | Ki [1] [nM] | IC50 [2] [µM] | times more potent than the corresponding S/R (racemic) mixture ([1]; enantiopure S isomers vs racemic Compounds 71, 93 and 72, respectively) | difference in body weight or welfare between experiment groups (SJSA-1 xenograft) |
| --- | --- | --- | --- | --- |
| CCOC(=O)c1ccc(Cl)cc1N1C(=O)c2cn(-c3ccccc3OC)c(C(C)C)c2C12C(=O)Nc1cc(Cl)ccc12 (stereo not shown) [Compound 106, ethyl 4-chloro-2-[6-chloro-5′-(2-methoxyphenyl)-2,3′-dioxo-6′-(propan-2-yl)-1,2,3′,5′-tetrahydro-2′H-spiro[indole-3,1′-pyrrolo[3,4-c]pyrrole]-2′-yl]benzoate] | 4.2 | 0.78 | – | – |
| COc1ccc(C(N)=O)cc1-n1cc2c(c1C(C)C)[C@@]1(C(=O)Nc3cc(Cl)ccc31)N(c1cc(Cl)ccc1C)C2=O [Compound 110, 3-[(3S)-6-chloro-2′-(5-chloro-2-methylphenyl)-2,3′-dioxo-6′-(propan-2-yl)-1,2,3′,5′-tetrahydro-2′H-spiro[indole-3,1′-pyrrolo[3,4-c]pyrrole]-5′-yl]-4-methoxybenzamide] | 1.7 | 0.35 | – | – |
| COc1ccc(-n2cc3c(c2C(C)C)[C@@]2(C(=O)Nc4cc(Cl)ccc42)N(c2cc(Cl)cnc2C)C3=O)c(OC)c1 [Compound 111, (3S)-6-chloro-2′-(5-chloro-2-methyl-pyridin-3-yl)-5′-(2,4-dimethoxyphenyl)-6′-(propan-2-yl)-1,2,3′,5′-tetrahydro-2′H-spiro[indole-3,1′-pyrrolo[3,4-c]pyrrole]-2,3′-dione] | 2.8 | 0.12 | – | – |
| COc1ccc(S(=O)(=O)N2CCOCC2)cc1-n1cc2c(c1C(C)C)C1(C(=O)Nc3cc(Cl)ccc31)N(c1cc(Cl)ccc1C)C2=O (stereo not shown) [Compound 112, 6-chloro-2′-(5-chloro-2-methylphenyl)-5′-[2-methoxy-5-(morpholine-4-sulfonyl)phenyl]-6′-(propan-2-yl)-1,2,3′,5′-tetrahydro-2′H-spiro[indole-3,1′-pyrrolo [3,4-c]pyrrole]-2,3′-dione] | 3.5 | 0.15 | – | – |
| COc1ccc(-n2nc3c(c2C(C)C)C2(C(=O)Nc4cc(Cl)ccc42)N(c2cc(Cl)ccc2C)C3=O)c(OC)n1 (stereo not shown) [Compound 114, 6-chloro-5′-(5-chloro-2-methylphenyl)-2′-(2,6-dimethoxypyridin-3-yl)-3′-(propan-2-yl)-1,2,5′,6′-tetrahydro-2′H-spiro[indole-3,4′-pyrrolo[3,4-c]pyrazole]-2,6′-dione] | 3.3 | 0.29 | – | – |

The remaining molecules from weak to strong by Ki [1], led by results:

| Ki [1] [nM] | IC50 [2] [µM] | times more potent than the corresponding S/R (racemic) mixture ([1]; enantiopure S isomers vs racemic Compounds 71, 93 and 72, respectively) | SMILES | difference in body weight or welfare between experiment groups (SJSA-1 xenograft) |
| --- | --- | --- | --- | --- |
| 3.8 | 0.42 | – | COc1ccc(-n2cc3c(c2C(C)C)C2(C(=O)Nc4cc(Cl)ccc42)N(c2cc(Cl)ccc2C)C3=O)c(OC)c1 (stereo not shown) [Compound 93, 6-chloro-2′-(5-chloro-2-methylphenyl)-5′-(2,4-dimethoxyphenyl)-6′-(propan-2-yl)-1,2,3′,5′-tetrahydro-2′H-spiro[indole-3,1′-pyrrolo[3,4-c]pyrrole]-2,3′-dione] | No significant difference |
| 3.4 | 0.69 | – | COc1sccc1-n1cc2c(c1C(C)C)C1(C(=O)Nc3cc(Cl)ccc31)N(c1cc(Cl)ccc1C)C2=O (stereo not shown) [Compound 113, 6-chloro-2′-(5-chloro-2-methylphenyl)-5′-(2-methoxythiophen-3-yl)-6′-(propan-2-yl)-1,2,3′,5′-tetrahydro-2′H-spiro[indole-3,1′-pyrrolo[3,4-c]pyrrole]-2,3′-dione] | – |
| 1.9 | 0.06 | about 2 times | COc1ccc(-n2cc3c(c2C(C)C)[C@@]2(C(=O)Nc4cc(Cl)ccc42)N(c2cc(Cl)ccc2C)C3=O)c(OC)c1 [Compound 107, (3S)-6-chloro-2′-(5-chloro-2-methylphenyl)-5′-(2,4-dimethoxyphenyl)-6′-(propan-2-yl)-1,2,3′,5′-tetrahydro-2′H-spiro[indole-3,1′-pyrrolo[3,4-c]pyrrole]-2,3′-dione] | – |
| 1.6 | 0.35 | – | COc1ccc(NC(C)=O)cc1-n1cc2c(c1C(C)C)[C@@]1(C(=O)Nc3cc(Cl)ccc31)N(c1cc(Cl)ccc1C)C2=O [Compound 108, N-{3-[(3S)-6-chloro-2′-(5-chloro-2-methylphenyl)-2,3′-dioxo-6′-(propan-2-yl)-1,2,3′,5′-tetrahydro-2′H-spiro[indole-3,1′-pyrrolo[3,4-c]pyrrole]-5′-yl]-4-methoxyphenyl}acetamide] | – |
| 1.3 | 0.07 | – | COc1ccc(N)cc1-n1cc2c(c1C(C)C)[C@@]1(C(=O)Nc3cc(Cl)ccc31)N(c1cc(Cl)ccc1C)C2=O [Compound 109, (3S)-5′-(5-amino-2-methoxyphenyl)-6-chloro-2′-(5-chloro-2-methylphenyl)-6′-(propan-2-yl)-1,2,3′,5′-tetrahydro-2′H-spiro[indole-3,1′-pyrrolo[3,4-c]pyrrole]-2,3′-dione] | – |
